Measurements as given in patent US20230146455A1, “TREATMENT OF INFLAMMATORY DISEASES WITH PEPTIDES AND PHARMACEUTICAL COMPOSITIONS” (Yuyu Pharma, Inc., priority 2020, published 2023).
Where “and” joins values, the source holds several entries; their conditions need not be identical. Equal values may be shown once. Where a SMILES comes first, the peptide text is derived from it. [ ]: non-standard residue; d: D form. Hyp = O=C(O)[C@@H]1C[C@@H](O)CN1

Tested on: IL-6
Assay: Example 9 Luminex, LPS hPBMCs: IL-6
Format: cell-based, human
Conditions: Bead IL-6, PBMC + LPS(5 ug/ml)
Procedure: Treatment Human PBMCs were pretreated with YY-101, YDE-011 and YDE-043 or reference compound; Xiidra® at various concentration (ranging from 1 nM to 100 uM) for 2 h before stimulation. An equal volume of 0.5% DMSO was used as a vehicle control. Then, the cells were treated with LPS at 5 ug/ml. The supernatants from treated cells were harvested at 24 h and placed in a 96 well for Luminex cytokine & chemokine profiling using a Luminex 200 multiplex assay (Luminex; R&D system, USA).
The main study arm with triplicate wells per group in a 24-well plate: • 1. Blank • 2. PBMC: 0.5% DMSO • 3. PBMC+LPS (5 ug/ml) • 4. PBMC+YY-101 100 uM • 5. PBMC+YY-101 10 uM • 6. PBMC+YY-101 1 uM • 7. PBMC+YY-101 0.1 uM • 8. PBMC+YY-101 0.01 uM • 9. PBMC+LPS (5 ug/ml)+Xiidra®100 uM • 10. PBMC+LPS (5 ug/ml)+Xiidra® 10 uM • 11. PBMC+LPS (5 ug/ml)+Xiidra® 1 uM • 12. PBMC+LPS (5 ug/ml)+Xiidra®0.1 uM • 13. PBMC+LPS (5 ug/ml)+Xiidra®0.01 uM • 14. PBMC+LPS (5 ug/ml)+Xiidra®0.001 uM • 15. PBMC+LPS (5 ug/ml)+YY-101 100 uM • 16. PBMC+LPS (5 ug/ml)+YY-101 10 uM • 17. PBMC+LPS (5 ug/ml)+YY-101 1 uM • 18. PBMC+LPS (5 ug/ml)+YY-101 0.1 uM • 19. PBMC+LPS (5 ug/ml)+YY-101 0.01 uM • 20. PBMC+LPS (5 ug/ml)+YY-101 0.001 uM • 21. PBMC+LPS (5 ug/ml)+YDE-011 100 uM • 22. PBMC+LPS (5 ug/ml)+YDE-011 10 uM • 23. PBMC+LPS (5 ug/ml)+YDE-011 1 uM • 24. PBMC+LPS (5 ug/ml)+YDE-011 0.1 uM • 25. PBMC+LPS (5 ug/ml)+YDE-011 0.01 uM • 26. PBMC+LPS (5 ug/ml)+YDE-011 0.001 uM • 27. PBMC+LPS (5 ug/ml)+YDE-043 100 uM • 28. PBMC+LPS (5 ug/ml)+YDE-043 10 uM • 29. PBMC+LPS (5 ug/ml)+YDE-043 1 uM • 30. PBMC+LPS (5 ug/ml)+YDE-043 0.1 uM • 31. PBMC+LPS (5 ug/ml)+YDE-043 0.01 uM • 32. PBMC+LPS (5 ug/ml)+YDE-043 0.001 uM
Multiplex assay was used to measure 30 cytokines and chemokines. The 1:2, 1:10 and 1:200 diluted cell supernatant and serial dilution of the standard were dispensed into a 96 well plate at 50 ul/well. Then, the pre-mixed cocktail of antibody-coated magnetic beads was dispensed at 50 ul/well and incubated at room temperature for 2 h in a horizontal orbital microplate shaker at 800±500 rpm. The beads were washed using a magnetic device to prevent loss. The biotin-antibody was dispensed in 50 ul of each well and incubated at room temperature for 1 h in a shaker at 800±500 rpm. After washing, streptavidin-PE was added at 50 ul/well and incubated at room temperature for 30 min in a shaker under the same conditions. Finally, after washing, wash buffer (100 ul/well) was added to the plate and incubated in a shaker for 2 min. The Luminex™ 200 setting were set according to the manufacturer's protocol. The data was calculated with a standard five-parameter logistic nonlinear regression analysis of the data (xPonent software 4.2, USA). The levels of cytokine/chemokine are normalized to the live cell counts (1×10^5 cells/mL) and presented as concentrations per mL (pg/mL or ng/mL).

Row | Compound | Concentration (0.001 uM, Mean) [pg/mL] | MFI (0.001 uM, Mean) | conc/live cell (0.001 uM, Mean) [pg/10^5] | Concentration (0.001 uM, single replicates) | MFI (0.001 uM, single replicates) | conc/live cell (0.001 uM, single replicates) | Concentration (0.01 uM, Mean) [pg/mL] | MFI (0.01 uM, Mean) | conc/live cell (0.01 uM, Mean) [pg/10^5] | Concentration (0.01 uM, single replicates) | MFI (0.01 uM, single replicates) | conc/live cell (0.01 uM, single replicates) | Concentration (0.1 uM, Mean) [pg/mL] | MFI (0.1 uM, Mean) | conc/live cell (0.1 uM, Mean) [pg/10^5] | Concentration (0.1 uM, single replicates) | MFI (0.1 uM, single replicates) | conc/live cell (0.1 uM, single replicates) | Concentration (1 uM, Mean) [pg/mL] | MFI (1 uM, Mean) | also measured
1 | CC(C)C[C@H](NC(=O)CNC(=O)[C@H](CC(C)C)NC(=O)[C@H](CCC(N)=O)NC(=O)CNC(=O)[C@@H]1C[C@@H](O)CN1)C(=O)N[C@@H](C)C(=O)NCC(=O)N1CCC[C@H]1C(=O)N[C@@H](CCCCN)C(=O)O [YDE-011] (H-[Hyp]GQLGLAGPK-OH) | 6729.3 | 186.6 | 1268.0 | 6493.4 pg/mL and 6683.4 pg/mL and 7011.0 pg/mL | 179.8 and 185.3 and 194.8 | 1443.0 pg/10^5 and 1152.3 pg/10^5 and 1208.8 pg/10^5 | 7097.0 | 197.3 | 1218.8 | 7131.5 pg/mL and 6924.8 pg/mL and 7234.7 pg/mL | 198.3 and 192.3 and 201.3 | 1150.2 pg/10^5 and 1357.8 pg/10^5 and 1148.4 pg/10^5 | 6700.6 | 185.8 | 1180.6 | 6458.9 pg/mL and 6907.6 pg/mL and 6735.2 pg/mL | 178.8 and 191.8 and 186.8 | 978.6 pg/10^5 and 1381.5 pg/10^5 and 1181.6 pg/10^5 | 6838.4 | 189.8 | conc/live cell (1 uM, Mean): 1364.4 pg/10^5; Concentration (1 uM, single replicates): 6821.4 pg/mL and 7217.5 pg/mL and 6476.2 pg/mL; MFI (1 uM, single replicates): 189.3 and 200.8 and 179.3; conc/live cell (1 uM, single replicates): 1240.3 pg/10^5 and 1503.6 pg/10^5 and 1349.2 pg/10^5; Concentration (10 uM, Mean): 6769.7 pg/mL; MFI (10 uM, Mean): 187.8; conc/live cell (10 uM, Mean): 1286.9 pg/10^5; Concentration (10 uM, single replicates): 6890.4 pg/mL and 6700.7 pg/mL and 6717.9 pg/mL; MFI (10 uM, single replicates): 191.3 and 185.8 and 186.3; conc/live cell (10 uM, single replicates): 1276.0 pg/10^5 and 1155.3 pg/10^5 and 1429.3 pg/10^5; Concentration (100 uM, Mean): 7572.5 pg/mL; MFI (100 uM, Mean): 211.1; conc/live cell (100 uM, Mean): 1247.9 pg/10^5; Concentration (100 uM, single replicates): 7801.4 pg/mL and 7715.7 pg/mL and 7200.3 pg/mL; MFI (100 uM, single replicates): 217.8 and 215.3 and 200.3; conc/live cell (100 uM, single replicates): 1278.9 pg/10^5 and 1264.9 pg/10^5 and 1200.1 pg/10^5
2 | CC(C)C[C@H](NC(=O)[C@H](CCC(N)=O)NC(=O)CNC(=O)[C@@H]1C[C@@H](O)CN1)C(=O)NCC(=O)O [YDE-043] (H-[Hyp]GQLG-OH; N-terminus and C-terminus assumed) | 7090.4 | 197.1 | 1434.2 | 6355.1 pg/mL and 7578.4 pg/mL and 7337.9 pg/mL | 175.8 and 211.3 and 204.3 | 1444.3 pg/10^5 and 1263.1 pg/10^5 and 1595.2 pg/10^5 | 6942.0 | 192.8 | 1327.4 | 7062.6 pg/mL and 7011.0 pg/mL and 6752.4 pg/mL | 196.3 and 194.8 and 187.3 | 1569.5 pg/10^5 and 1062.3 pg/10^5 and 1350.5 pg/10^5 | 6590.8 | 182.6 | 1223.6 | 6528.0 pg/mL and 6147.3 pg/mL and 7097.1 pg/mL | 180.8 and 169.8 and 197.3 | 1305.6 pg/10^5 and 1097.7 pg/10^5 and 1267.3 pg/10^5 | 6992.5 | 194.3 | conc/live cell (1 uM, Mean): 1321.1 pg/10^5; Concentration (1 uM, single replicates): 7131.5 pg/mL and 6164.6 pg/mL and 7681.3 pg/mL; MFI (1 uM, single replicates): 198.3 and 170.3 and 214.3; conc/live cell (1 uM, single replicates): 1229.6 pg/10^5 and 1284.3 pg/10^5 and 1449.3 pg/10^5; Concentration (10 uM, Mean): 9513.9 pg/mL; MFI (10 uM, Mean): 268.1; conc/live cell (10 uM, Mean): 1764.4 pg/10^5; Concentration (10 uM, single replicates): 7303.5 pg/mL and 14554.8 pg/mL and 6683.4 pg/mL; MFI (10 uM, single replicates): 203.3 and 415.8 and 185.3; conc/live cell (10 uM, single replicates): 1404.5 pg/10^5 and 2695.3 pg/10^5 and 1193.5 pg/10^5; Concentration (100 uM, Mean): 7286.3 pg/mL; MFI (100 uM, Mean): 202.8; conc/live cell (100 uM, Mean): 1157.1 pg/10^5; Concentration (100 uM, single replicates): 7389.4 pg/mL and 7183.1 pg/mL; MFI (100 uM, single replicates): 205.8 and 199.8; conc/live cell (100 uM, single replicates): 1191.8 pg/10^5 and 1122.4 pg/10^5
